Measured values reported in patent US11739074B2, “Ras inhibitors” (Revolution Medicines, Inc., priority 2019, dated 2023).
Where two headings read alike, the source gives them in different places.

Assays:
[1] = ester bond, EDCI/HOBt/DIPEA, 16.0 h
[2] = ester bond, 18-membered ring, EDCI/HOBt/DIEA, 25.0 °C
KRAS G13D = KRAS G13D (Homo sapiens, UniProt P01116+P62937, G13D); test: Ras-Raf disruption/FRET/MOA assay, KRAS G13D; assay type: biochemical; settings: disruption of BRAF RBD binding, with Cyclophilin A; read-out: KRAS G13D FRET IC50
Outline: (§1)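 His6-KRAS-GMPPNP (12.5 nM) was combined with tagless Cyclophilin A (25 μM) and GST-BRAF^RBD (50 nM) in pH 7.3 HEPES buffer with NaCl, MgCl2, Tween20 and BSA. Compound was tested as a 10-point 3-fold series from 30 μM final, 3 h at 25° C. Disruption was read as a drop in TR-FRET ratio versus DMSO.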

NCI-H358 (K-Ras G12C) = test: CellTiter-Glo cell viability assay, H358; assay type: cell-based; settings: Homo sapiens, NCI-H358, 120 h, NCI-H358, K-Ras G12C, 5-day treatment; read-out: H358 Cell Viability IC50
Outline: (§2)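 Viability is scored by CellTiter-Glo luminescence on day 5 of compound treatment, relative to vehicle (DMSO) wells set as 100%, with a four-parameter logistic fit.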

NRAS Q61K = target: T1, NRAS Q61K (Homo sapiens, UniProt P01111+P62937, Q61K); test: Ras-Raf disruption/FRET/MOA assay, NRAS Q61K; assay type: biochemical; settings: NRAS Q61K; read-out: NRAS Q61K FRET data IC50
T1 construct: His6

KRAS Q61H = KRAS Q61H (Homo sapiens, UniProt P01116+P62937, Q61H); test: Ras-Raf disruption/FRET/MOA assay, KRAS Q61H; assay type: biochemical; settings: KRAS Q61H; read-out: KRAS Q61H FRET data IC50
Outline: as §1

AsPC-1 (K-Ras G12D) [3] = test: Potency assay: pERK in AsPC-1 cells; assay type: cell-based; settings: Homo sapiens, ASPC1; AsPC-1 cells, K-Ras G12D; read-out: pERK EC50 (AsPC-1 KRAS G12D)
KRAS G12V = KRAS G12V (Homo sapiens, UniProt P01116+P62937, G12V); test: Ras-Raf disruption/FRET/MOA assay, KRAS G12V; assay type: biochemical; settings: disruption of BRAF RBD binding, with Cyclophilin A; read-out: KRAS G12V FRET IC50
Outline: as §1

KRAS WT = KRAS WT (Homo sapiens, UniProt P01116+P62937); test: Ras-Raf disruption/FRET/MOA assay, KRAS WT; assay type: biochemical; settings: disruption of BRAF RBD binding, with Cyclophilin A; read-out: KRAS WT FRET IC50
Outline: as §1

KRAS G12S = KRAS G12S (Homo sapiens, UniProt P01116+P62937, G12S); test: Ras-Raf disruption/FRET/MOA assay, KRAS G12S; assay type: biochemical; settings: disruption of BRAF RBD binding, with Cyclophilin A; read-out: KRAS G12S FRET IC50
Outline: as §1

KRAS G13C = KRAS G13C (Homo sapiens, UniProt P01116+P62937, G13C); test: Ras-Raf disruption/FRET/MOA assay, KRAS G13C; assay type: biochemical; settings: disruption of BRAF RBD binding, with Cyclophilin A; read-out: KRAS G13C FRET IC50
Outline: as §1

NRAS WT = target: T2, NRAS WT (Homo sapiens, UniProt P01111+P62937); test: Ras-Raf disruption/FRET/MOA assay, NRAS WT; assay type: biochemical; settings: NRAS WT; read-out: NRAS WT FRET data IC50
T2 construct: His6

NRAS G12C = target: T3, NRAS G12C (Homo sapiens, UniProt P01111+P62937, G12C); test: Ras-Raf disruption/FRET/MOA assay, NRAS G12C; assay type: biochemical; settings: NRAS G12C; read-out: NRAS G12C FRET data IC50
T3 construct: His6
Outline: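 Disruption of Ras:RAF binding was read as a drop in TR-FRET ratio versus DMSO controls. The buffer was 25 mM HEPES pH 7.3, 0.002% Tween20, 0.1% BSA, 100 mM NaCl and 5 mM MgCl2. Compounds were tested as a 10-point 3-fold dilution series from 30 μM. Detection used 10 nM anti-His Eu-W1024 and 50 nM anti-GST allophycocyanin.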

KRAS G12C = KRAS G12C (Homo sapiens, UniProt P01116+P62937, G12C); test: Ras-Raf disruption/FRET/MOA assay, KRAS G12C; assay type: biochemical; settings: disruption of BRAF RBD binding, with Cyclophilin A; read-out: KRAS G12C FRET IC50
Outline: as §1

KRAS G12D = KRAS G12D (Homo sapiens, UniProt P01116+P62937, G12D); test: Ras-Raf disruption/FRET/MOA assay, KRAS G12D; assay type: biochemical; settings: disruption of BRAF RBD binding, with Cyclophilin A; read-out: KRAS G12D FRET IC50
Outline: as §1

NRAS Q61R = target: T4, NRAS Q61R (Homo sapiens, UniProt P01111+P62937, Q61R); test: Ras-Raf disruption/FRET/MOA assay, NRAS Q61R; assay type: biochemical; settings: NRAS Q61R; read-out: NRAS Q61R FRET data IC50
T4 construct: His6

AsPC-1 (K-Ras G12D) [4] = test: CellTiter-Glo cell viability assay, AsPC-1; assay type: cell-based; settings: Homo sapiens, ASPC1, 120 h, AsPC-1, K-Ras G12D, 5-day treatment; read-out: AsPC-1 Cell Viability IC50
Outline: as §2

T4 sequence (P01111 whole entry Q61R): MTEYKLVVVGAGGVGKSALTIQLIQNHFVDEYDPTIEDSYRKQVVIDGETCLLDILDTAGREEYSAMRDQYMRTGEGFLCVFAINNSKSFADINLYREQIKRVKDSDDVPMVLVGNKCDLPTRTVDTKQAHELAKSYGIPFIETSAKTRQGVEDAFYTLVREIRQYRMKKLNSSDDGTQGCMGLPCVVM
T4 sequence (P62937 whole entry): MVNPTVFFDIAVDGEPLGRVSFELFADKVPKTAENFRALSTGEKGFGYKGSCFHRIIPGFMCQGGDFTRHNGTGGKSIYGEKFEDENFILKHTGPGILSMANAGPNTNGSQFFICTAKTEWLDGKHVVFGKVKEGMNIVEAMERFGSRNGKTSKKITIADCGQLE
T1 sequence (P01111 whole entry Q61K): as the sequence (P01111 whole entry Q61R) above, with R61K counted along it
T1 sequence (P62937 whole entry): as the sequence (P62937 whole entry) above
T2 sequence (P01111 whole entry): as the sequence (P01111 whole entry Q61R) above, with R61Q counted along it
T2 sequence (P62937 whole entry): as the sequence (P62937 whole entry) above
T3 sequence (P01111 whole entry G12C): as the sequence (P01111 whole entry Q61R) above, with G12C, R61Q counted along it
T3 sequence (P62937 whole entry): as the sequence (P62937 whole entry) above
Chain of KRAS WT (P01116 1-169 isoform P01116-2 limits assumed): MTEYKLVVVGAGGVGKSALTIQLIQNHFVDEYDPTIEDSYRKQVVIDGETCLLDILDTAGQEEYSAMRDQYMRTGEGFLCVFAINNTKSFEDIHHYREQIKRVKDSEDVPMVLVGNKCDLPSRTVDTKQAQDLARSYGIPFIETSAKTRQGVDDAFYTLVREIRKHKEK
Chain of KRAS WT (P62937 whole entry): as the sequence (P62937 whole entry) above
Chain of KRAS G12S (P01116 1-169 isoform P01116-2 G12S limits assumed): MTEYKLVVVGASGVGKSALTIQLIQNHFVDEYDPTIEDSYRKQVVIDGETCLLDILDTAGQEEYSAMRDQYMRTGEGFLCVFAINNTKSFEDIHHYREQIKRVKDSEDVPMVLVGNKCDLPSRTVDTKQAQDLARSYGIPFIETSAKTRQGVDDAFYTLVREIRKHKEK
Chain of KRAS G12S (P62937 whole entry): as the sequence (P62937 whole entry) above
Chain of KRAS G12V (P01116 1-169 isoform P01116-2 G12V limits assumed): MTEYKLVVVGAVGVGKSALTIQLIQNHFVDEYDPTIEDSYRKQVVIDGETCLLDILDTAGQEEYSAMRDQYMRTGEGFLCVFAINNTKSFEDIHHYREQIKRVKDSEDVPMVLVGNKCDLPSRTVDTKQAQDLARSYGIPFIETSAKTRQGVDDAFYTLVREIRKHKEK
Chain of KRAS G12V (P62937 whole entry): as the sequence (P62937 whole entry) above
Chain of KRAS G13D (P01116 1-169 isoform P01116-2 G13D limits assumed): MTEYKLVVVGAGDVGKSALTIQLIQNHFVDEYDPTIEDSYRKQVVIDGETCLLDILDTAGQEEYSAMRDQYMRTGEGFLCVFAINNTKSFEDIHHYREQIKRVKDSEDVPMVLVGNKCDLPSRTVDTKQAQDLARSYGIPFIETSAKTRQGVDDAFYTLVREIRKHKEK
Chain of KRAS G13D (P62937 whole entry): as the sequence (P62937 whole entry) above
Chain of KRAS G12C (P01116 1-169 isoform P01116-2 G12C limits assumed): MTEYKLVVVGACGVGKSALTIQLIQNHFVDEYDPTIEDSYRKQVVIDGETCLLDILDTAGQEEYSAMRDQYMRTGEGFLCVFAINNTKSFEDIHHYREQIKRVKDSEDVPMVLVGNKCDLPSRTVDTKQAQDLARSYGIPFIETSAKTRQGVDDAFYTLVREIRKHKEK
Chain of KRAS G12C (P62937 whole entry): as the sequence (P62937 whole entry) above
Chain of KRAS Q61H (P01116 1-169 isoform P01116-2 Q61H limits assumed): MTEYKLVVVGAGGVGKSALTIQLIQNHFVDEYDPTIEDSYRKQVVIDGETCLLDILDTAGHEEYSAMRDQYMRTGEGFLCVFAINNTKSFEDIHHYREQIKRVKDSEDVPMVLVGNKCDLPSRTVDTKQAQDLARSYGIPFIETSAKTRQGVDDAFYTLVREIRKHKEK
Chain of KRAS Q61H (P62937 whole entry): as the sequence (P62937 whole entry) above
Chain of KRAS G13C (P01116 1-169 isoform P01116-2 G13C limits assumed): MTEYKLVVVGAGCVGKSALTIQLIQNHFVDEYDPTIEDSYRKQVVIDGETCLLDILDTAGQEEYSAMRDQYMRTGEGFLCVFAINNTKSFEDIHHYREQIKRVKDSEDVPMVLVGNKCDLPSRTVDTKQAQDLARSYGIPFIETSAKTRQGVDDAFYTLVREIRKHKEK
Chain of KRAS G13C (P62937 whole entry): as the sequence (P62937 whole entry) above
Chain of KRAS G12D (P01116 1-169 isoform P01116-2 G12D limits assumed): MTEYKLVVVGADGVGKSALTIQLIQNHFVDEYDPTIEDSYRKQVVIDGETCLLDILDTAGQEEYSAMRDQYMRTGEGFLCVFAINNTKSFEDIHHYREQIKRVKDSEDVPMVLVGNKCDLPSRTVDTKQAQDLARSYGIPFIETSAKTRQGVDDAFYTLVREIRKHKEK
Chain of KRAS G12D (P62937 whole entry): as the sequence (P62937 whole entry) above

## CC1(C)COC(=O)[C@@H]2CCCN(N2)C(=O)[C@@H](NC(=O)OC(C)(C)C)Cc2cccc(c2)-c2ccc3[nH]c(I)c(c3c2)C1
[1]; from CC(C)(CO)Cc1c(I)[nH]c2ccc(-c3cccc(C[C@H](NC(=O)OC(C)(C)C)C(=O)N4CCC[C@@H](C(=O)O)N4)c3)cc12, DCM, 12.8 mM, 0.0 °C
  ring closure, yield of all isomers: 79.8%

## CC(C)[Si](Oc1cc2cc(c1)-c1ccc3[nH]c(I)c(c3c1)CC(C)(C)COC(=O)[C@@H]1CCCN(N1)C(=O)[C@@H](NC(=O)OC(C)(C)C)C2)(C(C)C)C(C)C
[1]; from CC(C)[Si](Oc1cc(C[C@H](NC(=O)OC(C)(C)C)C(=O)N2CCC[C@@H](C(=O)O)N2)cc(-c2ccc3[nH]c(I)c(CC(C)(C)CO)c3c2)c1)(C(C)C)C(C)C, DCM, 22.8 mM, 25.0 °C
  ring closure, yield of all isomers: 50%

## CCn1c(-c2cccnc2[C@H](C)OC)c2c3cc(ccc31)-c1csc(n1)C[C@H](NC(=O)OC(C)(C)C)C(=O)N1CCC[C@H](N1)C(=O)OCC(C)(C)C2
[1]; from CCn1c(-c2cccnc2[C@H](C)OC)c(CC(C)(C)CO)c2cc(-c3csc(C[C@H](NC(=O)OC(C)(C)C)C(=O)N4CCC[C@@H](C(=O)O)N4)n3)ccc21, DCM, 12.65 mM, 25.0 °C
  ring closure, yield of all isomers: 81.1%

## CCn1c(-c2cc(N3CCN(C(=O)OCc4ccccc4)CC3)cnc2[C@H](C)OC)c2c3cc(ccc31)-c1csc(n1)C[C@H](NC(=O)OC(C)(C)C)C(=O)N1CCC[C@H](N1)C(=O)OCC(C)(C)C2
[2]; from CCn1c(-c2cc(N3CCN(C(=O)OCc4ccccc4)CC3)cnc2[C@H](C)OC)c(CC(C)(C)CO)c2cc(-c3csc(C[C@H](NC(=O)OC(C)(C)C)C(=O)N4CCC[C@@H](C(=O)O)N4)n3)ccc21, MeCN, 10.3 mM
  ring closure, isolated yield: 54.9%
[1]; from CCn1c(-c2cc(N3CCN(C(=O)OCc4ccccc4)CC3)cnc2[C@H](C)OC)c(CC(C)(C)CO)c2cc(-c3csc(C[C@H](NC(=O)OC(C)(C)C)C(=O)N4CCC[C@@H](C(=O)O)N4)n3)ccc21, MeCN, 10.34 mM, 25.0 °C
  ring closure, yield of all isomers: 54.9%

## CCn1c(-c2cccnc2[C@H](C)OC)c2c3cc(ccc31)-c1cc(cc(C(F)F)c1)C[C@H](NC(=O)OC(C)(C)C)C(=O)N1CCC[C@H](N1)C(=O)OCC(C)(C)C2
[2]; from CCn1c(-c2cccnc2[C@H](C)OC)c(CC(C)(C)CO)c2cc(-c3cc(C[C@H](NC(=O)OC(C)(C)C)C(=O)N4CCC[C@@H](C(=O)O)N4)cc(C(F)F)c3)ccc21, DCM, 21.0 mM
  ring closure, isolated yield: 71.6%
[1]; from CCn1c(-c2cccnc2[C@H](C)OC)c(CC(C)(C)CO)c2cc(-c3cc(C[C@H](NC(=O)OC(C)(C)C)C(=O)N4CCC[C@@H](C(=O)O)N4)cc(C(F)F)c3)ccc21, DCM, 21.05 mM, 25.0 °C
  ring closure, yield of all isomers: 71.6%

## CCn1c(-c2cccnc2[C@H](C)OC)c2c3cc(ccc31)-c1cc(CF)cc(c1)C[C@H](NC(=O)OC(C)(C)C)C(=O)N1CCC[C@H](N1)C(=O)OCC(C)(C)C2
[2]; from CCn1c(-c2cccnc2[C@H](C)OC)c(CC(C)(C)CO)c2cc(-c3cc(CF)cc(C[C@H](NC(=O)OC(C)(C)C)C(=O)N4CCC[C@@H](C(=O)O)N4)c3)ccc21, DCM, 23.7 mM
  ring closure, isolated yield: 65%
[1]; from CCn1c(-c2cccnc2[C@H](C)OC)c(CC(C)(C)CO)c2cc(-c3cc(CF)cc(C[C@H](NC(=O)OC(C)(C)C)C(=O)N4CCC[C@@H](C(=O)O)N4)c3)ccc21, DCM, 23.73 mM, 25.0 °C
  ring closure, yield of all isomers: 65%

## CCn1c(-c2cccnc2[C@H](C)OC)c2c3cc(ccc31)-c1cc(O)cc(c1)C[C@H](NC(=O)[C@H](C(C)C)N1CCCC3(CN(C(=O)[C@H]4CN4)C3)C1=O)C(=O)N1CCC[C@H](N1)C(=O)OCC(C)(C)C2 [Compound 307]
KRAS G13D
  IC50: 10 to 100 nM
NCI-H358 (K-Ras G12C)
  IC50: < 10 nM
NRAS Q61K
  IC50: 100 to 1000 nM
KRAS Q61H
  IC50: 10 to 100 nM
AsPC-1 (K-Ras G12D) [3]
  EC50: < 5000 nM
KRAS G12V
  IC50: 10 to 100 nM
KRAS WT
  IC50: 10 to 100 nM
KRAS G12S
  IC50: 10 to 100 nM
KRAS G13C
  IC50: 10 to 100 nM
NRAS WT
  IC50: 10 to 100 nM
NRAS G12C
  IC50: < 10 nM
KRAS G12C
  IC50: < 10 nM
KRAS G12D
  IC50: 100 to 1000 nM
NRAS Q61R
  IC50: 100 to 1000 nM
AsPC-1 (K-Ras G12D) [4]
  IC50: 100 to 1000 nM

## CCn1c(-c2cccnc2[C@H](C)OC)c2c3cc(ccc31)-c1cc(CF)cc(c1)C[C@H](NC(=O)[C@H](C1CCCC1)N1CC[C@]3(CCN(C(=O)[C@@H]4N[C@@H]4C4CC4)C3)C1=O)C(=O)N1CCC[C@H](N1)C(=O)OCC(C)(C)C2 [Compound 321]
KRAS G13D
  IC50: 1000 to 10000 nM
NCI-H358 (K-Ras G12C)
  IC50: 100 to 1000 nM
NRAS Q61K
  IC50: 1000 to 10000 nM
KRAS Q61H
  IC50: 100 to 1000 nM
AsPC-1 (K-Ras G12D) [3]
  EC50: < 5000 nM
KRAS G12V
  IC50: 100 to 1000 nM
KRAS WT
  IC50: 100 to 1000 nM
KRAS G12S
  IC50: 100 to 1000 nM
KRAS G13C
  IC50: 100 to 1000 nM
NRAS WT
  IC50: 100 to 1000 nM
NRAS G12C
  IC50: 100 to 1000 nM
KRAS G12C
  IC50: 100 to 1000 nM
KRAS G12D
  IC50: 100 to 1000 nM
NRAS Q61R
  IC50: 1000 to 10000 nM
AsPC-1 (K-Ras G12D) [4]
  IC50: 10 to 100 nM

## CCn1c(-c2cccnc2[C@H](C)OC)c2c3cc(ccc31)-c1csc(n1)C[C@H](NC(=O)[C@H](C(C)C)N(C)C(=O)N1CCC[C@H](N(C)C(=O)[C@H]3CN3)C1)C(=O)N1CCC[C@H](N1)C(=O)OCC(C)(C)C2 (atropisomer, axis not shown) [Compound 290]
KRAS G13D
  IC50: 1000 to 10000 nM
NCI-H358 (K-Ras G12C)
  IC50: 10 to 100 nM
NRAS Q61K
  IC50: 100 to 1000 nM
KRAS Q61H
  IC50: 100 to 1000 nM
AsPC-1 (K-Ras G12D) [3]
  EC50: < 5000 nM
KRAS G12V
  IC50: 100 to 1000 nM
KRAS WT
  IC50: 100 to 1000 nM
KRAS G12S
  IC50: 100 to 1000 nM
KRAS G13C
  IC50: 100 to 1000 nM
NRAS WT
  IC50: 100 to 1000 nM
NRAS G12C
  IC50: 100 to 1000 nM
KRAS G12C
  IC50: 100 to 1000 nM
KRAS G12D
  IC50: 1000 to 10000 nM
NRAS Q61R
  IC50: 100 to 1000 nM
AsPC-1 (K-Ras G12D) [4]
  IC50: 1000 to 10000 nM
